Reference: ChEMBL document CHEMBL1201862, “PubChem BioAssay data set” (2004)
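Exposure lasted 48 hours, with cells grown in 96-well plates and compounds tested at five concentrations. The concentration for 50% growth inhibition is given as GI50.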 Calls of active or inactive are those of the source. Cut-off read from the data, not from the text of the source: active = GI50 up to about 1.1 µM and inactive = higher.

Tests used:
Assay in all cases: growth of human tumour cells (NCI), 48 h
[1] = tested on: SN12C
[2] = tested on: DMS-273
[3] = tested on: DU-145
[4] = tested on: SK-MEL-5
[5] = tested on: MDA-N
[6] = tested on: SW-620
[7] = tested on: SNB-75
[8] = tested on: UACC-257
[9] = tested on: MCF7
[10] = tested on: HCC 2998
[11] = tested on: MDA-MB-435
[12] = tested on: HL-60
[13] = tested on: SF-268
[14] = tested on: A549
[15] = tested on: MOLT-4
[16] = tested on: MDA-MB-231
[17] = tested on: LOX IMVI
[18] = tested on: IGROV-1
[19] = tested on: OVCAR-8
[20] = tested on: EKVX

O=C1NC(=O)C2C3C=CC(C12)C1C2C(=O)NC(=O)C2C31 (stereo unspecified)
GI50 [1]: 192 µM (inactive)
GI50 [2]: 116 µM (inactive)
GI50 [3]: > 250 µM (inactive)
GI50 [4]: 195 µM (inactive)
GI50 [5]: 701 µM (inactive)
GI50 [6]: 167 µM (inactive)
GI50 [7]: 197 µM (inactive)
GI50 [8]: 238 µM (inactive)
GI50 [9]: 164 µM (inactive)
GI50 [10]: 221 µM (inactive)
GI50 [11]: > 1000 µM (inactive)
GI50 [12]: 183 µM (inactive)
GI50 [13]: > 250 µM (inactive)
GI50 [14]: 93.8 µM (inactive)
GI50 [15]: > 100 µM (inactive)
GI50 [16]: > 250 µM (inactive)
GI50 [17]: 241 µM (inactive)
GI50 [18]: 186 µM (inactive)
GI50 [19]: 203 µM (inactive)
GI50 [20]: 234 µM (inactive)

CCCC1C[C@H]2CCCCN2[C@H]2CCCN12 (stereo partly specified)
GI50 [1]: > 100 µM (inactive)
GI50 [2]: > 61.9 µM (inactive)
GI50 [4]: > 100 µM (inactive)
GI50 [6]: > 37.8 µM (inactive)
GI50 [7]: > 100 µM (inactive)
GI50 [8]: > 100 µM (inactive)
GI50 [10]: > 100 µM (inactive)
GI50 [12]: > 37.8 µM (inactive)
GI50 [13]: > 100 µM (inactive)
GI50 [14]: > 87.1 µM (inactive)
GI50 [15]: > 100 µM (inactive)
GI50 [17]: > 39.4 µM (inactive)
GI50 [18]: > 100 µM (inactive)
GI50 [19]: > 100 µM (inactive)
GI50 [20]: > 100 µM (inactive)

CC(C)C(=O)/C=C/c1ccc(Cl)cc1
GI50 [1]: 7.73 µM (inactive)
GI50 [2]: 3.99 µM (inactive)
GI50 [4]: 8.57 µM (inactive)
GI50 [6]: 3.99 µM (inactive)
GI50 [7]: 15.8 µM (inactive)
GI50 [8]: 20.2 µM (inactive)
GI50 [10]: 18 µM (inactive)
GI50 [12]: 8.22 µM (inactive)
GI50 [13]: 23.8 µM (inactive)
GI50 [14]: 21.7 µM (inactive)
GI50 [15]: 12.2 µM (inactive)
GI50 [17]: 8.83 µM (inactive)
GI50 [18]: 21.6 µM (inactive)

C=C1C(C)C2C(Cc3ccccc3)NC(=O)C23C(OC(C)=O)C=CC(C)(O)C(=O)C(C)C/C=C/C3C1O (stereo unspecified)
GI50 [1]: 39.3 µM (inactive)
GI50 [2]: 1.96 µM (inactive)
GI50 [3]: 28.2 µM (inactive)
GI50 [4]: 0.76 µM (active)
GI50 [5]: 15.6 µM (inactive)
GI50 [6]: 87.7 µM (inactive)
GI50 [7]: 0.0333 µM (active)
GI50 [8]: 6.59 µM (inactive)
GI50 [9]: 6.76 µM (inactive)
GI50 [10]: 21.7 µM (inactive)
GI50 [11]: 51.1 µM (inactive)
GI50 [12]: 4.57 µM (inactive)
GI50 [13]: 1.45 µM (inactive)
GI50 [14]: 0.764 µM (active)
GI50 [16]: 0.151 µM (active)
GI50 [17]: 0.101 µM (active)
GI50 [18]: 0.902 µM (active)
GI50 [19]: 79.8 µM (inactive)
GI50 [20]: 1.8 µM (inactive)

COc1cc(C2c3cc4c(cc3[C@@H](N(C)c3ccc(N(C)C)cc3)C3COC(=O)C23)OCO4)cc(OC)c1O (stereo partly specified)
GI50 [1]: 0.59 µM (active)
GI50 [2]: 0.291 µM (active)
GI50 [4]: 0.383 µM (active)
GI50 [6]: 0.184 µM (active)
GI50 [7]: 4.34 µM (inactive)
GI50 [8]: 1.39 µM (inactive)
GI50 [10]: 0.785 µM (active)
GI50 [12]: 0.362 µM (active)
GI50 [13]: 0.343 µM (active)
GI50 [15]: 0.434 µM (active)
GI50 [17]: 0.437 µM (active)
GI50 [18]: 0.536 µM (active)
GI50 [19]: 0.365 µM (active)
GI50 [20]: 15.8 µM (inactive)

CC(=O)C1Cn2c(=O)c3cc4ccccc4cc3c(=O)n2C=C1C (stereo unspecified)
GI50 [1]: > 100 µM (inactive)
GI50 [2]: > 100 µM (inactive)
GI50 [4]: 91.4 µM (inactive)
GI50 [6]: > 100 µM (inactive)
GI50 [7]: 67.8 µM (inactive)
GI50 [8]: > 100 µM (inactive)
GI50 [10]: > 100 µM (inactive)
GI50 [12]: > 100 µM (inactive)
GI50 [13]: > 100 µM (inactive)
GI50 [14]: > 100 µM (inactive)
GI50 [15]: > 100 µM (inactive)
GI50 [17]: > 100 µM (inactive)
GI50 [18]: > 100 µM (inactive)
GI50 [19]: > 100 µM (inactive)
GI50 [20]: > 100 µM (inactive)

CCOC(=O)NC1=C(N2CC2)C(=O)C(NC(=O)OCC)=C(N2CC2)C1=O [DIAZIQUONE]
GI50 [1]: 1.36 µM (inactive)
GI50 [2]: 0.596 µM (active)
GI50 [3]: 1.9 µM (inactive)
GI50 [4]: 3.72 µM (inactive)
GI50 [5]: 3.4 µM (inactive)
GI50 [6]: 4.97 µM (inactive)
GI50 [7]: 4.73 µM (inactive)
GI50 [8]: 4.65 µM (inactive)
GI50 [9]: 1.98 µM (inactive)
GI50 [10]: 6.85 µM (inactive)
GI50 [11]: 3.58 µM (inactive)
GI50 [12]: 0.357 µM (active)
GI50 [13]: 2.81 µM (inactive)
GI50 [15]: 1.38 µM (inactive)
GI50 [16]: 8.13 µM (inactive)
GI50 [17]: 2.31 µM (inactive)
GI50 [18]: 5.33 µM (inactive)
GI50 [19]: 3.73 µM (inactive)
GI50 [20]: 6.37 µM (inactive)

Cc1ccc(NC(=O)CC/C(CC(=O)c2ccc(Cl)cc2)=N\NC(=O)C(=O)NN)cc1C
GI50 [1]: > 100 µM (inactive)
GI50 [2]: > 100 µM (inactive)
GI50 [4]: > 100 µM (inactive)
GI50 [6]: > 100 µM (inactive)
GI50 [7]: > 100 µM (inactive)
GI50 [8]: > 100 µM (inactive)
GI50 [10]: > 100 µM (inactive)
GI50 [12]: > 100 µM (inactive)
GI50 [13]: > 100 µM (inactive)
GI50 [14]: > 100 µM (inactive)
GI50 [15]: > 100 µM (inactive)
GI50 [17]: > 100 µM (inactive)
GI50 [18]: > 100 µM (inactive)
GI50 [19]: > 100 µM (inactive)
GI50 [20]: > 100 µM (inactive)

CC(=O)c1ccc2c(ccc(=O)n2C)c1
GI50 [1]: > 100 µM (inactive)
GI50 [2]: > 100 µM (inactive)
GI50 [4]: > 100 µM (inactive)
GI50 [6]: > 100 µM (inactive)
GI50 [7]: 38.7 µM (inactive)
GI50 [10]: > 100 µM (inactive)
GI50 [12]: > 100 µM (inactive)
GI50 [13]: > 100 µM (inactive)
GI50 [14]: > 100 µM (inactive)
GI50 [15]: > 100 µM (inactive)
GI50 [17]: > 100 µM (inactive)
GI50 [18]: > 100 µM (inactive)
GI50 [19]: > 100 µM (inactive)
GI50 [20]: > 100 µM (inactive)

Cc1cc2c3c(coc3c1-c1c(C)cc3c4c(coc14)C(=O)C(O)=C3C(C)C)C(=O)C(O)=C2C(C)C
GI50 [1]: 10.1 µM (inactive)
GI50 [2]: 4 µM (inactive)
GI50 [4]: 15.1 µM (inactive)
GI50 [6]: 5.2 µM (inactive)
GI50 [7]: 10.9 µM (inactive)
GI50 [8]: 14.3 µM (inactive)
GI50 [10]: 3.68 µM (inactive)
GI50 [12]: 3.42 µM (inactive)
GI50 [13]: 5.08 µM (inactive)
GI50 [14]: 4.05 µM (inactive)
GI50 [15]: 3.66 µM (inactive)
GI50 [17]: 5.7 µM (inactive)
GI50 [18]: 3.99 µM (inactive)
GI50 [19]: 4.72 µM (inactive)
GI50 [20]: 2.28 µM (inactive)

Cc1ccc(S(=O)(=O)Nc2cccc3c(=O)nc[nH]c23)cc1
GI50 [1]: > 100 µM (inactive)
GI50 [2]: > 100 µM (inactive)
GI50 [4]: 43.9 µM (inactive)
GI50 [6]: > 100 µM (inactive)
GI50 [7]: > 51.1 µM (inactive)
GI50 [8]: > 87.5 µM (inactive)
GI50 [10]: > 82 µM (inactive)
GI50 [12]: 23.3 µM (inactive)
GI50 [13]: > 100 µM (inactive)
GI50 [14]: 72.8 µM (inactive)
GI50 [15]: 34.3 µM (inactive)
GI50 [17]: 96.6 µM (inactive)
GI50 [18]: > 100 µM (inactive)
GI50 [19]: > 100 µM (inactive)
GI50 [20]: > 100 µM (inactive)

COC(=O)Cc1c([C@@]2(C)CCCC(C)(C)C2)ccc2c1C(=O)OC2
GI50 [1]: 10.1 µM (inactive)
GI50 [2]: 5.43 µM (inactive)
GI50 [4]: 7.36 µM (inactive)
GI50 [6]: 18.9 µM (inactive)
GI50 [7]: 14.3 µM (inactive)
GI50 [8]: 5.66 µM (inactive)
GI50 [12]: 3.42 µM (inactive)
GI50 [14]: 9.84 µM (inactive)
GI50 [15]: 3.92 µM (inactive)
GI50 [17]: 11.2 µM (inactive)
GI50 [18]: 15 µM (inactive)
GI50 [19]: 15.3 µM (inactive)
GI50 [20]: 18.1 µM (inactive)

CC(C)CC(NC(=O)c1cccc(O)c1O)C(=O)NCc1cc(CNC(=O)C(CC(C)C)NC(=O)c2cccc(O)c2O)cc(CNC(=O)C(CC(C)C)NC(=O)c2cccc(O)c2O)c1 (stereo unspecified)
GI50 [1]: 12.8 µM (inactive)
GI50 [2]: 15.6 µM (inactive)
GI50 [4]: 12.8 µM (inactive)
GI50 [6]: 17.2 µM (inactive)
GI50 [7]: 20.6 µM (inactive)
GI50 [8]: 20.1 µM (inactive)
GI50 [10]: 7.8 µM (inactive)
GI50 [12]: 4.34 µM (inactive)
GI50 [13]: 8.13 µM (inactive)
GI50 [14]: 18.6 µM (inactive)
GI50 [15]: 11.4 µM (inactive)
GI50 [17]: 8.63 µM (inactive)
GI50 [18]: 5.66 µM (inactive)
GI50 [19]: 40.6 µM (inactive)
GI50 [20]: 12.6 µM (inactive)

O=[N+]([O-])c1ccc(C[P+]2(c3ccccc3)CCCCC2)cc1.[O-][Cl+3]([O-])([O-])[O-]
GI50 [1]: > 100 µM (inactive)
GI50 [2]: > 100 µM (inactive)
GI50 [4]: > 100 µM (inactive)
GI50 [6]: > 100 µM (inactive)
GI50 [7]: > 100 µM (inactive)
GI50 [8]: > 100 µM (inactive)
GI50 [10]: > 100 µM (inactive)
GI50 [12]: > 100 µM (inactive)
GI50 [14]: > 100 µM (inactive)
GI50 [15]: > 100 µM (inactive)
GI50 [17]: > 100 µM (inactive)
GI50 [18]: > 100 µM (inactive)
GI50 [19]: > 100 µM (inactive)
GI50 [20]: > 100 µM (inactive)

N#C/C(=C(/S)Nc1ccccc1)c1nc2ccccc2[nH]1
GI50 [1]: > 10 µM (inactive)
GI50 [2]: > 10 µM (inactive)
GI50 [4]: > 10 µM (inactive)
GI50 [6]: > 10 µM (inactive)
GI50 [7]: > 10 µM (inactive)
GI50 [8]: > 10 µM (inactive)
GI50 [10]: > 10 µM (inactive)
GI50 [12]: > 10 µM (inactive)
GI50 [13]: > 10 µM (inactive)
GI50 [14]: > 10 µM (inactive)
GI50 [15]: > 10 µM (inactive)
GI50 [17]: > 10 µM (inactive)
GI50 [18]: 1 µM (active)
GI50 [19]: > 10 µM (inactive)
GI50 [20]: > 10 µM (inactive)
